In this test the test system is H1650 xenografts. Nature of the test: In vivo efficacy in combination with osimertinib in Met non amplified NCI-H1650 lung adenocarcinoma human cell model, Example 16. As to conditions: osimertinib 15 mg/kg orally on day 1, 2, 3, 4, 7, 8, 9, alone. Also noted: species or system SCID mice. The text has this:
Below are the procedures for determining the in vivo therapeutic effect of different Bcl-xL ADCs targeting the Met protein as a single agent or in combination with osimertinib. Their activities are compared to the corresponding naked anti-Met mAbs or Ab G-L42C-P25 (Isotype control/non-targeting ADC) formulated in Phosphate-Buffered Saline (PBS) in a Met non amplified NCI-H1650 lung adenocarcinoma human cell line after intravenous (IV) administration.
NCI-H1650 cells, obtained from ATCC, were cultured in RPMI supplemented with 10% SBS, 1% Penicillin-Streptomycin and 1% HEPES. Cells were resuspended in 50% Matrigel® (Corning®) and 0.1 ml containing 10×10^6 cells were subcutaneously inoculated into the right flank of female SCID mice, provided by JANVIER labs.
When tumors reached the appropriate volume (100-200 mm3), mice were randomized, 6 animals per group, using Easy stat software. […]
Mice body weight was monitored 3 times a week and tumor size measured using electronic calipers. […] The last day with at least half of control animals still present in the study (d25), tumor growth inhibition was calculated using the formula: […]
With DTV (Delta Tumor Volume) at Dx, calculated being TV at Dx−TV at Randomization. […]

This note sets out measurements from US20250339547A1, “MET BCL-XL INHIBITOR ANTIBODY-DRUG CONJUGATES AND METHODS OF USE THEREOF” (Novartis AG, priority 2022, published 2025).

With `C=CC(=O)Nc1cc(Nc2nccc(-c3cn(C)c4ccccc34)n2)c(OC)cc1N(C)CCN(C)C` [Osimertinib, osimertinib], the “TGI % (d 25)” value is given as 86.3%.
